Data taken from patent US20160243023A1, “Novel Skin Remodeling Strategy” (ELC MANAGEMENT LLC, priority 2015, published 2016).

How the values were obtained:
[1] = test system: human dermal fibroblasts (HDFs); assay: Glycated collagen phagocytosis by HDFs (Phagocytosis Index); format: cell-based; conditions: beads pre-treated overnight with methylglyoxal; 3 hours incubation with HDFs
Protocol: • 1. On day 1, HDFs were plated in 24 well plates. • 2. On day 2, HDFs, after reaching confluence, were maintained for 48 hours under starvation conditions. • 3. On day 4, HDFs were incubated for 3 hours with collagen-coated microspheres (2×10^6 beads) as control or with collagen-coated microspheres (2×10^6 beads) that had been pre-treated overnight with glycation inducer, methylglyoxal. HDFs were then washed with PBS to remove unbound and loosely bound beads. • 4. Cell viability was measured using Presto Blue reagent; phagocytosis was measured by the determination of the fluorescence reading of internalized beads, using the procedure described above in Example 1. Results, shown in FIG. 11, are expressed as Phagocytosis Index (i.e., the ratio of the phagocytosis fluorescent signal divided by the viability signal).

[2] = test system: human dermal fibroblasts (HDFs); assay: TGFβ1-induced collagen synthesis in HDF after pretreatment with inducers of collagen phagocytosis (PIP EIA); format: cell-based; conditions: TGFβ1 used alone at 0.25 ng/ml, 72 hours
Protocol: • 1. On day 1, HDFs were plated in 96 well plates. • 2. On day 2, HDFs, after reaching confluence, were treated with medium (control) or with actives (test materials previously found by the inventors to be phagocytosis enhancers*; data not shown) under starvation conditions for 48 hours (step 1). • 3. On day 4, the actives were removed and the cells were treated with medium or with a collagen inducer, 0.25 ng/ml TGFβ1 in medium, for 72 hours (step 2). • 4. On day 7, medium was collected and analyzed for collagen release using a PIP EIA. The amount of PIP (pro-collagen ng/ml medium) is quantitated by measuring the absorbance using an EIA plate reader. Accurate sample concentrations of PIP can be determined by comparing the specific absorbances to a standard curve. Cell viability also was assessed using a standard 3-(4,5-dimethylthiazol-2-yl)-2,5-diphenyltetrazoliumbromide (MTT) assay. The assay involves the conversion of the water soluble MTT, a yellow tetrazole, to an insoluble purple formazan in living cells. The formazan is then solubilized and the concentration determined by measuring the absorbance at a wavelength of from about 500-600 nm using a spectrophotometer. […]

Compound | uptake by HDFs of pre-treated collagen-coated beads versus beads coated with unmodified collagen (Phagocytosis Index) [1] | increase in collagen synthesis compared with the non-treated control [2] [%]
CC(=O)C=O [methylglyoxal] | substantially the same rate | 
TGFβ1: Transforming Growth Factor Beta 1, collagen inducer |  | 30
